How the values were obtained:
[1] = test system: non-endogenous, constitutively activated version of GCR1, R271P, BY-2 cells; assay: Thymidine incorporation in synchronized BY-2 cells, constitutively activated GCR1 R271P; assay type: cell-based, tobacco (Nicotiana tabacum); details: 3 μM and 10 μM ABA; BY-2 cells with R271P GCR1; measured over time; FIG. 11B
Method: (§1) Agrobacterium tumefaciens were transformed with the pMON-GCR1 plasmid and used to produce transgenic BY-2 cell lines. BY-2 cells were transformed according to the method disclosed in An, G. Plan Physiol. 79, 568-570 (1985). The selected transgenic alli were grown in the dark on selective medium at the 24° C. and transferred to fresh medium every 4 week. Liquid cultures were obtained for the different transgenic lines and synchronization was achieved by a 24-h subculture in 5 mg/liter aphidicolin. See, Combettes, B. et al., Methods Cells Sci., 21, 109-121 (1991).
(§2) DNA synthesis is measured by incubating 1 ml samples of the synchronized cell suspension with 1 μCi of [^3H] thymidine for 20 minutes at 27° C. in Eppendorf microtubes with gentle shaking. Cells were collected by centrifugation for 5 minutes at 1,800× g, and the pellet was frozen in dry ice. DNA was extracted with Plant DNAzol Reagent (GIBCO/BRL), resuspended in water, and the [^3H] radioactivity was determined with a scintillation counter.
(§3) To determine the effect of the non-endogenous, constitutively activated version of GCR1, […], on the cell cycle, control cell (empty vector), wild-type GCR1 (“wt”) and R271P overexpressing BY-2 cells were synchronized with aphidicolin for 24 h, and, after removal of the cell cycle blocker, thymidine incorporation was measured. (See, FIG. 10). […]

[2] = test system: wild-type GCR1 ("wt") BY-2 cells; assay: Thymidine incorporation in synchronized BY-2 cells, wild-type GCR1; assay type: cell-based, tobacco (Nicotiana tabacum); details: 3 μM and 10 μM ABA; BY-2 cells with wild-type GCR1; measured over time; FIG. 11A
Method: as §1, §2, §3

CC1=CC(=O)CC(C)(C)C1(O)/C=C/C(C)=C\C(=O)O (centres unmarked) [ABA, Abscissic Acid]
thymidine incorporation (DNA synthesis) [1]: not affected | thymidine incorporation (DNA synthesis) [2]: decreases thymidine incorporation

From patent US20030073812A1, “Non-endogenous, constitutively activated versions of plant G protein-coupled receptor: GCR1” (priority 2001, published 2003)
